In PubChem BioAssay (NCI):
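Abbreviation: GI50, concentration required for 50% inhibition of growth. At the TGI there is no net growth.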

What was measured:
Experiment in all cases: DTP human tumour cell line panel, 384-well format
MDA-MB-435 melanoma = test system: MDA-MB-435 melanoma
CAKI-1 renal = test system: CAKI-1 renal
K-562 leukemia = test system: K-562 leukemia
OVCAR-4 ovarian = test system: OVCAR-4 ovarian
MOLT-4 leukemia = test system: MOLT-4 leukemia
SW-620 colon = test system: SW-620 colon
U251 glioblastoma = test system: U251 glioblastoma
NCI-H23 lung = test system: NCI-H23 lung
ACHN renal = test system: ACHN renal
NCI/ADR-RES ovarian = test system: NCI/ADR-RES ovarian
HT29 colon = test system: HT29 colon
HCT-116 colon = test system: HCT-116 colon
SR leukemia = test system: SR leukemia
HOP-92 NSCLC = test system: HOP-92 NSCLC
MDA-MB-468 breast = test system: MDA-MB-468 breast
KM12 colon = test system: KM12 colon
T-47D breast = test system: T-47D breast
SNB-75 CNS = test system: SNB-75 CNS
EKVX NSCLC = test system: EKVX NSCLC
OVCAR-5 ovarian = test system: OVCAR-5 ovarian
MALME-3M melanoma = test system: MALME-3M melanoma
MCF7 breast = test system: MCF7 breast
UACC-257 melanoma = test system: UACC-257 melanoma
786-0 renal = test system: 786-0 renal
RPMI-8226 leukemia = test system: RPMI-8226 leukemia
SF-268 CNS = test system: SF-268 CNS
OVCAR-3 ovarian = test system: OVCAR-3 ovarian
HCC-2998 colon = test system: HCC-2998 colon
SK-MEL-2 melanoma = test system: SK-MEL-2 melanoma
NCI-H460 NSCLC = test system: NCI-H460 NSCLC
HL-60(TB) leukemia = test system: HL-60(TB) leukemia
SN12C renal = test system: SN12C renal
NCI-H226 lung = test system: NCI-H226 lung
TK-10 renal = test system: TK-10 renal
SK-MEL-5 melanoma = test system: SK-MEL-5 melanoma
COLO 205 colon = test system: COLO 205 colon
NCI-H322M lung = test system: NCI-H322M lung
CCRF-CEM leukemia = test system: CCRF-CEM leukemia
DU-145 prostate = test system: DU-145 prostate
SF-295 CNS = test system: SF-295 CNS
LOX IMVI melanoma = test system: LOX IMVI melanoma
SK-OV-3 ovarian = test system: SK-OV-3 ovarian
A549 NSCLC = test system: A549 NSCLC
HS 578T breast = test system: HS 578T breast
SK-MEL-28 melanoma = test system: SK-MEL-28 melanoma
SF-539 CNS = test system: SF-539 CNS
BT-549 breast = test system: BT-549 breast
UACC-62 melanoma = test system: UACC-62 melanoma
RXF 393 renal = test system: RXF 393 renal
A498 renal = test system: A498 renal
NCI-H522 lung = test system: NCI-H522 lung
M14 melanoma = test system: M14 melanoma
SNB-19 CNS = test system: SNB-19 CNS
MDA-MB-231 breast = test system: MDA-MB-231 breast
HCT-15 colon = test system: HCT-15 colon
IGROV1 ovarian = test system: IGROV1 ovarian
PC-3 prostate = test system: PC-3 prostate
HOP-62 NSCLC = test system: HOP-62 NSCLC

`CC(C)[C@H](O)C(=O)N[C@@H](C)C(=O)N[C@@H]1C(=O)N(C)CCc2ccccc21` gave a GI50 (MDA-MB-435 melanoma) greater than 100 µM, a TGI (MDA-MB-435 melanoma) greater than 100 µM and a GI50 (CAKI-1 renal) greater than 100 µM. The TGI (CAKI-1 renal) was greater than 100 µM, the GI50 (K-562 leukemia) was greater than 100 µM and the TGI (K-562 leukemia) was greater than 100 µM. The GI50 (OVCAR-4 ovarian) was greater than 100 µM, the TGI (OVCAR-4 ovarian) was greater than 100 µM and the GI50 (MOLT-4 leukemia) was greater than 100 µM. For the same molecule, the TGI (MOLT-4 leukemia) was greater than 100 µM, the GI50 (SW-620 colon) was greater than 100 µM and the TGI (SW-620 colon) was greater than 100 µM. It also gave a GI50 (U251 glioblastoma) greater than 100 µM, a TGI (U251 glioblastoma) greater than 100 µM and a GI50 (NCI-H23 lung) greater than 100 µM. It also gave a TGI (NCI-H23 lung) greater than 100 µM, a GI50 (ACHN renal) greater than 100 µM and a TGI (ACHN renal) greater than 100 µM. The GI50 (NCI/ADR-RES ovarian) was greater than 100 µM, the TGI (NCI/ADR-RES ovarian) was greater than 100 µM and the GI50 (HT29 colon) was greater than 100 µM. It also gave a TGI (HT29 colon) greater than 100 µM, a GI50 (HCT-116 colon) greater than 100 µM and a TGI (HCT-116 colon) greater than 100 µM. It also gave a GI50 (SR leukemia) greater than 100 µM, a TGI (SR leukemia) greater than 100 µM and a GI50 (HOP-92 NSCLC) greater than 100 µM. It also gave a TGI (HOP-92 NSCLC) greater than 100 µM, a GI50 (MDA-MB-468 breast) greater than 100 µM and a TGI (MDA-MB-468 breast) greater than 100 µM. The GI50 (KM12 colon) was greater than 100 µM, the TGI (KM12 colon) was greater than 100 µM and the GI50 (T-47D breast) was greater than 100 µM. The TGI (T-47D breast) was greater than 100 µM, the GI50 (SNB-75 CNS) was greater than 100 µM and the TGI (SNB-75 CNS) was greater than 100 µM. For the same molecule, the GI50 (EKVX NSCLC) was greater than 100 µM, the TGI (EKVX NSCLC) was greater than 100 µM and the GI50 (OVCAR-5 ovarian) was greater than 100 µM. For the same molecule, the TGI (OVCAR-5 ovarian) was greater than 100 µM, the GI50 (MALME-3M melanoma) was greater than 100 µM and the TGI (MALME-3M melanoma) was greater than 100 µM. It also gave a GI50 (MCF7 breast) greater than 100 µM, a TGI (MCF7 breast) greater than 100 µM and a GI50 (UACC-257 melanoma) greater than 100 µM. It also gave a TGI (UACC-257 melanoma) greater than 100 µM, a GI50 ([…]-0 renal) greater than 100 µM and a TGI (786-0 renal) greater than 100 µM. It also gave a GI50 (RPMI-8226 leukemia) greater than 100 µM, a TGI (RPMI-8226 leukemia) greater than 100 µM and a GI50 (SF-268 CNS) greater than 100 µM. The TGI (SF-268 CNS) was greater than 100 µM, the GI50 (OVCAR-3 ovarian) was greater than 100 µM and the TGI (OVCAR-3 ovarian) was greater than 100 µM. It also gave a GI50 (HCC-2998 colon) greater than 100 µM, a TGI (HCC-2998 colon) greater than 100 µM and a GI50 (SK-MEL-2 melanoma) greater than 100 µM. It also gave a TGI (SK-MEL-2 melanoma) greater than 100 µM, a GI50 (NCI-H460 NSCLC) greater than 100 µM and a TGI (NCI-H460 NSCLC) greater than 100 µM. For the same molecule, the GI50 (HL-60(TB) leukemia) was greater than 100 µM, the TGI (HL-60(TB) leukemia) was greater than 100 µM and the GI50 (SN12C renal) was greater than 100 µM. The TGI (SN12C renal) was greater than 100 µM, the GI50 (NCI-H226 lung) was greater than 100 µM and the TGI (NCI-H226 lung) was greater than 100 µM. The GI50 (TK-10 renal) was greater than 100 µM, the TGI (TK-10 renal) was greater than 100 µM and the GI50 (SK-MEL-5 melanoma) was greater than 100 µM. For the same molecule, the TGI (SK-MEL-5 melanoma) was greater than 100 µM, the GI50 (COLO 205 colon) was greater than 100 µM and the TGI (COLO 205 colon) was greater than 100 µM. For the same molecule, the GI50 (NCI-H322M lung) was greater than 100 µM, the TGI (NCI-H322M lung) was greater than 100 µM and the GI50 (CCRF-CEM leukemia) was greater than 100 µM. The TGI (CCRF-CEM leukemia) was greater than 100 µM, the GI50 (DU-145 prostate) was greater than 100 µM and the TGI (DU-145 prostate) was greater than 100 µM. For the same molecule, the GI50 (SF-295 CNS) was greater than 100 µM, the TGI (SF-295 CNS) was greater than 100 µM and the GI50 (LOX IMVI melanoma) was greater than 100 µM. The TGI (LOX IMVI melanoma) was greater than 100 µM, the GI50 (SK-OV-3 ovarian) was greater than 100 µM and the TGI (SK-OV-3 ovarian) was greater than 100 µM. It also gave a GI50 (A549 NSCLC) greater than 100 µM, a TGI (A549 NSCLC) greater than 100 µM and a GI50 (HS 578T breast) greater than 100 µM. The TGI (HS 578T breast) was greater than 100 µM, the GI50 (SK-MEL-28 melanoma) was greater than 100 µM and the TGI (SK-MEL-28 melanoma) was greater than 100 µM. For the same molecule, the GI50 (SF-539 CNS) was greater than 100 µM, the TGI (SF-539 CNS) was greater than 100 µM and the GI50 (BT-549 breast) was greater than 100 µM. The TGI (BT-549 breast) was greater than 100 µM, the GI50 (UACC-62 melanoma) was greater than 100 µM and the TGI (UACC-62 melanoma) was greater than 100 µM. It also gave a GI50 (RXF 393 renal) greater than 100 µM, a TGI (RXF 393 renal) greater than 100 µM and a GI50 (A498 renal) greater than 100 µM. It also gave a TGI (A498 renal) greater than 100 µM, a GI50 (NCI-H522 lung) greater than 100 µM and a TGI (NCI-H522 lung) greater than 100 µM. It also gave a GI50 (M14 melanoma) greater than 100 µM, a TGI (M14 melanoma) greater than 100 µM and a GI50 (SNB-19 CNS) greater than 100 µM. It also gave a TGI (SNB-19 CNS) greater than 100 µM, a GI50 (MDA-MB-231 breast) greater than 100 µM and a TGI (MDA-MB-231 breast) greater than 100 µM. For the same molecule, the GI50 (HCT-15 colon) was greater than 100 µM, the TGI (HCT-15 colon) was greater than 100 µM and the GI50 (IGROV1 ovarian) was greater than 100 µM. For the same molecule, the TGI (IGROV1 ovarian) was greater than 100 µM, the GI50 (PC-3 prostate) was greater than 100 µM and the TGI (PC-3 prostate) was greater than 100 µM. The GI50 (HOP-62 NSCLC) was greater than 100 µM and the TGI (HOP-62 NSCLC) was greater than 100 µM.
